Results as given in publication PMC11669383, “Modulating Liposome Surface Charge for Maximized ATP Regeneration in Synthetic Nanovesicles” (ACS Synthetic Biology, 2024).

Key:
Test in all cases: coupled ATP synthesis in proteoliposomes, luciferase luminescence
[1] = biological target: T1, quinone-fumarate oxidoreductase (FRD) (Escherichia coli, UniProt P00363); format: biochemical
T1 construct: gene frdA; coreconstituted in liposomes; with Fumarate reductase iron-sulfur subunit; Fumarate reductase subunit C; Fumarate reductase subunit D
T1 sequence (P00363 2-602, other chains not shown): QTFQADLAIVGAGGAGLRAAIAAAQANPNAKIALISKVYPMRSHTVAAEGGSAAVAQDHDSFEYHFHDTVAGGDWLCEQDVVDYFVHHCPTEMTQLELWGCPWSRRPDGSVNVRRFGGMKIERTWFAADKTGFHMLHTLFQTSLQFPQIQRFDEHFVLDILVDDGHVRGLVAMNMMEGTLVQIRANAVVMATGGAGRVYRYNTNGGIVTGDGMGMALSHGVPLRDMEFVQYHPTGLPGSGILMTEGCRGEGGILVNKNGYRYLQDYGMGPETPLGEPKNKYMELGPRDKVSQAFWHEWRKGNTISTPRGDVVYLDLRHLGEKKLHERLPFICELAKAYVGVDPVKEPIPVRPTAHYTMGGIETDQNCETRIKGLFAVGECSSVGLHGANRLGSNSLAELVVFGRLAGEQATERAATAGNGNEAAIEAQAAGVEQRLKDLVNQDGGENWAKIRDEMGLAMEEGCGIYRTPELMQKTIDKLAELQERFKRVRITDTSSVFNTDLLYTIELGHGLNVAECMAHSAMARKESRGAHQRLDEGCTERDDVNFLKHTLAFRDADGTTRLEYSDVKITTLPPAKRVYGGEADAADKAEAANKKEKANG
T1 sequence (P0AC47 2-244 partner, other chains not shown): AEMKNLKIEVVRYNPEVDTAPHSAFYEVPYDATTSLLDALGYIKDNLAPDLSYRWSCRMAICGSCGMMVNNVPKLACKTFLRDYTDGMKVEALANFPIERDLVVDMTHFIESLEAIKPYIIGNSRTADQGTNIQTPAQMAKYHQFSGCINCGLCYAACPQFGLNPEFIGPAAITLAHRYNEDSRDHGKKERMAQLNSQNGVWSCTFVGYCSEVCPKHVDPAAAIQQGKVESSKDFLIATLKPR
T1 sequence (P0A8Q0 whole entry partner, other chains not shown): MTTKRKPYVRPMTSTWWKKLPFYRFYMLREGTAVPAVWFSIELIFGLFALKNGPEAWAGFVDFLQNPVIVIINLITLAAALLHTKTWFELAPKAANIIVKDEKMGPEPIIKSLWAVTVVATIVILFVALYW

[2] = biological target: T1, quinone-fumarate oxidoreductase (FRD); format: biochemical; conditions: bo3 oxidase and ATP synthase coreconstituted in E. coli polar lipid liposomes, 2 mol % ubiquinone Q8, succinate 1-2000 μM, pH 7.5, read-out is the coupled rate, read-out: apparent KM
[3] = substrate: NC(=O)C1=CN([C@@H]2O[C@H](COP(=O)(O)OP(=O)(O)OC[C@H]3O[C@@H](n4cnc5c(N)ncnc54)[C@H](O)[C@@H]3O)[C@@H](O)[C@H]2O)C=CC1; format: biochemical, Escherichia coli; conditions: NDH-2 added to liposomes with bo3 oxidase, FRD and ATP synthase, 2 mol % ubiquinone Q8, NADH 5-200 μM, pH 7.5, read-out is the coupled rate

O=C(O)CC(=O)O [malonate]
coupled ATP synthesis in proteoliposomes, luciferase luminescence [1]: The reaction was sensitive to the complex II inhibitor malonate.

O=C(O)CCC(=O)O [succinate]
Km [2]: 62.2 µM

B1: NADH dehydrogenase II (NDH-2) (Escherichia coli K-12) (protein)
chain: TTPLKKIVIVGGGAGGLEMATQLGHKLGRKKKAKITLVDRNHSHLWKPLLHEVATGSLDEGVDALSYLAHARNHGFQFQLGSVIDIDREAKTITIAELRDEKGELLVPERKIAYDTLVMALGSTSNDFNTPGVKENCIFLDNPHQARRFHQEMLNLFLKYSANLGANGKVNIAIVGGGATGVELSAELHNAVKQLHSYGYKGLTNEALNVTLVEAGERILPALPPRISAAAHNELTKLGVRVLTQTMVTSADEGGLHTKDGEYIEADLMVWAAGIKAPDFLKDIGGLETNRINQLVVEPTLQTTRDPDIYAIGDCASCPRPEGGFVPPRAQAAHQMATCAMNNILAQMNGKPLKNYQYKDHGSLVSLSNFSTVGSLMGNLTRGSMMIEGRIARFVYISLYRMHQIALHGYFKTGLMMLVGSINRVIRPRLKLH
notes: 45 kDa peripheral membrane protein with FAD
Km [3]: 18.5 µM
